In US20080113915A1, “SAPAP3 knockout mouse and clinical modeling associated with the SAPAP3 gene” (Duke University, priority 2006, published 2008):

What was measured:
[1] = tested on: SAPAP3 knockout mice; assay: Videotaped grooming behaviour scoring after Fluoxetine treatment; format: in vivo, mouse; conditions: 5 mg/kg daily intraperitoneal, after six days, vs SAPAP3 knockout vehicle control group
Description: To ascertain the source of the lesions quantitative, video studies of the knockout mice were performed. Groups of 10 wild type mice and 10 knockout mice were housed such that each mouse was isolated in a single cage. Following an acclimatization period to individual housing, each mouse was videotaped for 24 hours. Three, four-hour sections (10 AM-2 PM, 6 PM-10 PM, and 2 AM-6 AM) of each 24-hour period were watched and scored for a panel of behaviors: grooming, drinking/eating, sleeping, rearing, digging/shifting, or alert/active. When analyzed on either a “time spent” or “number of bouts engaged in” basis, it was obvious that SAPAP3 knockout mice groomed far more than their wild type counterparts in every time period examined (see FIGS. 3 and 4).
Two cohorts of eight SAPAP3 knockout mice and two cohorts of eight wild type mice were housed in isolation and allowed to acclimate as in Example 2. One cohort of each genotype served as an experimental group and the other as a vehicle control group. The experimental groups were given a daily intraperitoneal injection of 5 mg/kg Fluoxetine for fourteen days. The control groups were given a daily vehicle injection under the same conditions.
After six days, mice from each group were individually videotaped and their behaviors scored as in Example 2. […]

[2] = tested on: SAPAP3 knockout mice; assay: Light-dark box emergence test after Fluoxetine treatment; format: in vivo, mouse; conditions: after 6 days of treatment with 5 mg/kg, intraperitoneal
[3] = tested on: SAPAP3 knockout mice; assay: Semi-quantitative scoring of lesion severity (scale 0-4); format: in vivo, mouse
Description: Four cohorts of eight SAPAP3 knockout mice and four cohorts of eight wild type mice were housed in isolation and allowed to acclimate as above. One cohort of each genotype served as a 5 mg/kg Fluoxetine experimental group, one as a 10 mg/kg Fluoxetine experimental group, one as a vehicle control group, and one as an uninjected control group.

[4] = tested on: SAPAP3 knockout animals; conditions: mouse, in vivo, 10 mg/kg
[5] = share of SAPAP3 KO mice, Fluoxetine groups (5 and 10 mg/kg) combined, at two weeks

Structure (SMILES): CNCCC(Oc1ccc(C(F)(F)F)cc1)c1ccccc1 (stereo not shown) [Fluoxetine]
- bouts of grooming [1]: far fewer bouts of grooming
- performance on the light-dark box emergence test (latency to leave dark chamber) [2]: significantly improved
- lesion severity (scale of 0-4) ([3]; SAPAP3 knockout mice, 5 and 10 mg/kg groups combined vs vehicle and uninjected groups combined, over a 2 week period): stabilized or improved lesions
- Lesion severity: Improve [3, 5]: 28.6%
- Lesion severity: No Change [3, 5]: 71.4%
- Lesion severity: Worse [3, 5]: 0%
- toxicity to SAPAP3 knockout animals relative to wild type controls [4]: progressively more toxic
